In the data set the test system is rodent carcinogenicity bioassays, tumor incidence. Kind of data set: CCRIS carcinogenicity studies. Summed up:
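NCI-built, expert-reviewed records of carcinogenicity and related test outcomes (mutagenicity, tumor promotion/inhibition) compiled from published and report sources, historical span 1985-2011, not updated.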

Active and inactive are the calls of the source. The rule behind the calls is not given here.

Regarding `Oc1ccc2ccccc2c1N=Nc1ccc(N=Nc2ccccc2)cc1`, the carcinogen call was “inactive; negative” (Species: MOUSE, Strain/Sex: SWISS-WEBSTER/FEMALE, Route: DERMAL, Dose: 0, 1% IN 0.1 ML 0.1% SODIUM LAURYL SULFATE 1/WK FOR 18 MO (STUDY DURATION: 18 MO)) and “inactive; negative” (Species: MOUSE, Strain/Sex: SWISS-WEBSTER/MALE, Route: DERMAL, Dose: 0, 1% IN 0.1 ML 0.1% SODIUM LAURYL SULFATE 1/WK FOR 18 MO (STUDY DURATION: 18 MO)).

Regarding `CN(C)c1ccccc1`, the carcinogen call by setting is: (Species: MOUSE, Strain/Sex: B6C3F1/FEMALE, Route: GAVAGE, Dose: 0, 15, 30 MG/KG IN CORN OIL FOR 103 WK (STUDY DURATION: 105 WK), Dose: 0, 15, 30 MG/KG IN CORN OIL FOR 103 WK (STUDY DURATION: 105 WK), Tumor Site: Type of Lesion: FORESTOMACH: SQUAMOUS CELL PAPILLOMA) “equivocal”; (Species: MOUSE, Strain/Sex: B6C3F1/MALE, Route: GAVAGE, Dose: 0, 15, 30 MG/KG IN CORN OIL FOR 103 WK (STUDY DURATION: 105 WK), Dose: 0, 15, 30 MG/KG IN CORN OIL FOR 103 WK (STUDY DURATION: 105 WK)) “inactive; negative”; (Species: RAT, Strain/Sex: F344/FEMALE, Route: GAVAGE, Dose: 0, 3, 30 MG/KG IN CORN OIL 5 D/WK FOR 103 WK (STUDY DURATION: 105 WK), Dose: 0, 3, 30 MG/KG IN CORN OIL 5 D/WK FOR 103 WK (STUDY DURATION: 105 WK)) “inactive; negative”; (Species: RAT, Strain/Sex: F344/MALE, Route: GAVAGE, Dose: 0, 3, 30 MG/KG IN CORN OIL 5 D/WK FOR 103 WK (STUDY DURATION: 105 WK), Dose: 0, 3, 30 MG/KG IN CORN OIL 5 D/WK FOR 103 WK (STUDY DURATION: 105 WK), Tumor Site: Type of Lesion: SPLEEN: SARCOMA, SARCOMA OR OSTEOSARCOMA) “active; positive”.

With `CC(/C=C/C=C(\C)C(=O)O[C@@H]1O[C@H](CO[C@@H]2O[C@H](CO)[C@@H](O)[C@H](O)[C@H]2O)[C@@H](O)[C@H](O)[C@H]1O)=C\C=C\C=C(C)\C=C\C=C(/C)C(=O)O[C@@H]1O[C@H](CO[C@@H]2O[C@H](CO)[C@@H](O)[C@H](O)[C@H]2O)[C@@H](O)[C@H](O)[C@H]1O`, the carcinogen call is “inactive; negative” (Species: MOUSE, Strain/Sex: C57BL/FEMALE, Route: ORAL, Dose: 0, 0.2, 0.8% IN DRINKING WATER FOR 95 WK (STUDY DURATION: 95 WK), Dose: 0, 0.2, 0.8% IN DRINKING WATER FOR 95 WK (STUDY DURATION: 95 WK)) and “inactive; negative” (Species: MOUSE, Strain/Sex: C57BL/MALE, Route: ORAL, Dose: 0, 0.2, 0.8% IN DRINKING WATER FOR 95 WK (STUDY DURATION: 95 WK), Dose: 0, 0.2, 0.8% IN DRINKING WATER FOR 95 WK (STUDY DURATION: 95 WK)).

For the compound `COCc1cnc(C2=NC(C)(C(C)C)C(=O)N2)c(C(=O)O)c1` (configuration not stated), the carcinogen call is “inactive; negative” (Species: Mouse, Strain/Sex: CD-1/Female (55/Group), Route: Oral, Dose: 0, 96, 664, 1348 mg/kg/day of 97.1% imazamox in diet for at least 18 mo, study duration at least 18 mo, Dose: 0, 96, 664, 1348 mg/kg/day of 97.1% imazamox in diet for at least 18 mo, study duration at least 18 mo); “inactive; negative” (Species: Mouse, Strain/Sex: CD-1/Male (55/Group), Route: Oral, Dose: 0, 73, 535, 1053 mg/kg/day of 97.1% imazamox in diet for at least 18 mo, study duration at least 18 mo, Dose: 0, 73, 535, 1053 mg/kg/day of 97.1% imazamox in diet for at least 18 mo, study duration at least 18 mo); “inactive; negative” (Species: Rat, Strain/Sex: Sprague-Dawley/Female (65/Group), Route: Oral, Dose: 0, 63, 626, 1284 mg/kg/day of 97.1% imazamox in diet for 24 mo, study duration 24 mo, Dose: 0, 63, 626, 1284 mg/kg/day of 97.1% imazamox in diet for 24 mo, study duration 24 mo); “inactive; negative” (Species: Rat, Strain/Sex: Sprague-Dawley/Male (65/Group), Route: Oral, Dose: 0, 52, 528, 1068 mg/kg/day of 97.1% imazamox in diet for 24 mo, study duration 24 mo, Dose: 0, 52, 528, 1068 mg/kg/day of 97.1% imazamox in diet for 24 mo, study duration 24 mo).

`O=S(=O)([O-])[O-].[Ni+2]`: the carcinogen call was “inactive; negative” (Species: MOUSE, Strain/Sex: B6C3F1/FEMALE, Route: INHALATION, Dose: 0, 0.25, 0.5, 1 MG/M3 6 HR/D 5 D/WK FOR 104 WK (STUDY DURATION: 105 WK), Dose: 0, 0.25, 0.5, 1 MG/M3 6 HR/D 5 D/WK FOR 104 WK (STUDY DURATION: 105 WK)); “inactive; negative” (Species: MOUSE, Strain/Sex: B6C3F1/MALE, Route: INHALATION, Dose: 0, 0.25, 0.5, 1 MG/M3 6 HR/D 5 D/WK FOR 104 WK (STUDY DURATION: 105 WK), Dose: 0, 0.25, 0.5, 1 MG/M3 6 HR/D 5 D/WK FOR 104 WK (STUDY DURATION: 105 WK)); “inactive; negative” (Species: RAT, Strain/Sex: F344/FEMALE, Route: INHALATION, Dose: 0, 0.12, 0.25, 0.5 MG/M3 6 HR/D 5 D/WK FOR 104 WK (STUDY DURATION: 105 WK), Dose: 0, 0.12, 0.25, 0.5 MG/M3 6 HR/D 5 D/WK FOR 104 WK (STUDY DURATION: 105 WK)); “inactive; negative” (Species: RAT, Strain/Sex: F344/MALE, Route: INHALATION, Dose: 0, 0.12, 0.25, 0.5 MG/M3 6 HR/D 5 D/WK FOR 104 WK (STUDY DURATION: 105 WK), Dose: 0, 0.12, 0.25, 0.5 MG/M3 6 HR/D 5 D/WK FOR 104 WK (STUDY DURATION: 105 WK)); “inactive; negative” (Species: RAT, Strain/Sex: F344/MALE, Route: INTRAMUSCULAR, Dose: 0, 63, 83, UMOL/KG GIVEN IN 14 INJECTIONS OVER 26 D (STUDY DURATION; 2 YR), Dose: 0, 63, 83, UMOL/KG GIVEN IN 14 INJECTIONS OVER 26 D (STUDY DURATION; 2 YR)); “inactive; negative” (Species: Rat, Strain/Sex: Fischer 344/Female (50/group), Route: Oral, Dose: 0, 10, 30, 50 mg/kg/day by gavage once daily for 104 wk, Dose: 0, 10, 30, 50 mg/kg/day by gavage once daily for 104 wk). The carcinogen call (Species: Rat, Strain/Sex: Fischer 344/Male (50/group), Route: Oral, Dose: 0, 10, 30, 50 mg/kg/day by gavage once daily for 104 wk, Dose: 0, 10, 30, 50 mg/kg/day by gavage once daily for 104 wk) was “inactive; negative”.

`COc1cccc2c1cc([N+](=O)[O-])c1c(C(=O)O)cc3c(c12)OCO3`: the carcinogen call (Species: RAT, Strain/Sex: SPRAGUE-DAWLEY/FEMALE, Route: ORAL, GAVAGE, Dose: 50 MG/KG BW/D FOR 3 D (STUDY DURATION: 6 MO), Tumor Site: Type of Lesion: KIDNEY: TUMORS, 29% (THERE WERE 3 MESENCHYMAL TUMORS AND 1 RENAL ONCOCYTOMA IN 14 ANIMALS)) is “active; positive”.

As to `Clc1c2ccccc2cc2c1ccc1ccccc12`, the carcinogen call (Species: MOUSE, Strain/Sex: B6C3F1/MALE, Route: INTRAPERITONEAL, Dose: 0, 1600 NMOL (TOTAL DOSE) ADMINISTERED IN DOSES OF 1/7 WITHIN 24 HR OF BIRTH, 2/7 AT 8 DAYS OF AGE AND 4/7 AT 15 DAYS OF, Tumor Site: Type of Lesion: LIVER: ADENOMA, CARCINOMA) is “active; positive”.

Take `c1ccc2n[nH]nc2c1`: the carcinogen call by setting is: (Species: MOUSE, Strain/Sex: B6C3F1/FEMALE, Route: ORAL, Dose: 0, 11700, 23500 PPM IN DIET FOR 104 WK (STUDY DURATION: 106-109 WK), Dose: 0, 11700, 23500 PPM IN DIET FOR 104 WK (STUDY DURATION: 106-109 WK), Tumor Site: Type of Lesion: LUNG: ALVEOLAR/BRONCHIOLAR CARCINOMA) “equivocal”; (Species: MOUSE, Strain/Sex: B6C3F1/MALE, Route: ORAL, Dose: 0, 11700, 23500 PPM IN DIET FOR 104 WK (STUDY DURATION: 106-109 WK), Dose: 0, 11700, 23500 PPM IN DIET FOR 104 WK (STUDY DURATION: 106-109 WK)) “inactive; negative”; (Species: RAT, Strain/Sex: F344/FEMALE, Route: ORAL, Dose: 0, 6700, 12100 PPM IN DIET FOR 78 WK (STUDY DURATION: 105-106 WK), Dose: 0, 6700, 12100 PPM IN DIET FOR 78 WK (STUDY DURATION: 105-106 WK), Tumor Site: Type of Lesion: BRAIN: TUMOR) “equivocal”; (Species: RAT, Strain/Sex: F344/MALE, Route: ORAL, Dose: 0, 6700, 12100 PPM IN DIET FOR 78 WK (STUDY DURATION: 105-106 WK), Dose: 0, 6700, 12100 PPM IN DIET FOR 78 WK (STUDY DURATION: 105-106 WK), Tumor Site: Type of Lesion: BRAIN: TUMOR) “equivocal”.

In the case of `OCCO`, the carcinogen call was “inactive; negative” (Species: MOUSE, Strain/Sex: B6C3F1/FEMALE, Route: ORAL, Dose: 0, 12500, 25000, 50000 PPM IN DIET FOR 721 D (STUDY DURATION: 105 WK), Dose: 0, 12500, 25000, 50000 PPM IN DIET FOR 721 D (STUDY DURATION: 105 WK)) and “inactive; negative” (Species: MOUSE, Strain/Sex: B6C3F1/MALE, Route: ORAL, Dose: 0, 6250, 12500, 25000 PPM IN DIET FOR 721 D (STUDY DURATION: 105 WK), Dose: 0, 6250, 12500, 25000 PPM IN DIET FOR 721 D (STUDY DURATION: 105 WK)).

The values are drawn from PubChem BioAssay AID1259411 (Chemical Carcinogenesis Research Information System (CCRIS), 2018).
